This note sets out measurements from patent publication US20200369626A1 (Washington University, priority 2019, published 2020).

Where two headings read alike, the source gives them in different places. Where only a bound is given, the exact number is not on record here.

The experiment addresses T1, S1PR2 (Homo sapiens, UniProt O95136).
T1 construct: purchased
In words: competitive [^32P]S1P binding assay on cell membranes, S1PR2.

Setting [1] is: [^32P]S1P competition, IC50 ± SD, second Table 1, read-out: S2PR2 IC50.
Where [2] appears, read: [^32P]S1P competition, IC50 ± SD, Table 1 (2a-l, 4a-h), read-out: IC50 (binding potency toward S1PR2).
The mark [3] stands for this setting: [^32P]S1P competition, read-out: IC50 value, S1PR2 binding.

T1 sequence (O95136 whole entry): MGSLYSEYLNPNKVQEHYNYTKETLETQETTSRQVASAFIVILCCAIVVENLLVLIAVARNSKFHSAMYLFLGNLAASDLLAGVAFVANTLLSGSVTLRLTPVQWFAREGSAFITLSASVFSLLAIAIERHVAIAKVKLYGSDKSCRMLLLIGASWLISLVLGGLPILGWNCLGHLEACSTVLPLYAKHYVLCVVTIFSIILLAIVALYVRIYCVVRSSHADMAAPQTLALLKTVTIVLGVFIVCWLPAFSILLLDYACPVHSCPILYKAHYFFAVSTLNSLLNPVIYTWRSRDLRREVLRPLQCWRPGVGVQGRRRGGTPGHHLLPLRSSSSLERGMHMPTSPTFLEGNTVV
Experimental: The test compounds were dissolved in DMSO and diluted into test samples with increasing concentrations with assay buffer. Commercial cell membranes expressing recombinant human S1PR were diluted with assay buffer to make a 20-40 μg/mL of solution. […] The plate was incubated for 60 min at room temperature with shaking and terminated by collecting the membranes onto 96-well glass fiber (GF/B) filtration plates (Millipore, Billerica, Mass.). Each filter was washed with 200 μL of assay buffer for a total of five washes. […] The IC50 values were fitted from GraphPad Prism 6 using one site Nonlinear Regression.

`CCOc1ccc(C(=O)Cn2c(=O)n(Cc3ccccc3)c(=O)c3ccccc32)cc1Cl` [TZ62-097]: where the note is “Table 5, read-out: IC50 S1PR2”, the half-maximal inhibitory concentration (IC50) is greater than 1 µM.
In the case of `CNC(=O)c1ccc(Oc2cc(NC(=O)N3CCC(O)(CC(C)C)CC3)cc(C(F)(F)F)c2)cc1` [Compound 25g, 4-Hydroxy-4-isobutyl-N-(3-(4-(methylcarbamoyl)phenoxy)-5-(trifluoromethyl)phenyl)piperidine-1-carboxamide], the IC50 under setting [1] came out at 0.359 µM.
Turning to `CC(C)CC1(O)CCN(c2nc3cc(Oc4ccc(F)cc4)cc([N+](=O)[O-])c3o2)CC1` [TZ57-045], where the note is “Table 5, read-out: IC50 S1PR2”, the IC50 was greater than 1 µM.
Same read-out and setting: under `COc1ccccc1NC(=O)Cn1c(=O)c2ccccc2n(Cc2ccc(F)cc2)c1=O` [TZ62-014] stands greater than 1 µM.
With `CCC(CC)CC1(O)CCN(C(=O)Nc2nc(Oc3ccc(F)cc3)cc(Oc3ccc(F)cc3)n2)CC1` [TZ57-007], under “Table 5, read-out: IC50 S1PR2”, the IC50 was greater than 1 µM.
On the same count and under the same terms, then `CC(C)CC1(O)CCN(C(=O)Nc2cccc(NC(=O)N3CCC(O)(CC(C)C)CC3)c2)CC1` [TZ57-115], with greater than 1 µM; and `CCC(CC)CC1(O)CCN(C(=O)Nc2cc(OCCCF)cc(Oc3ccc(F)cc3)c2)CC1` [TZ51-139], with greater than 1 µM; and `COc1ccc(NC(=O)c2cn(CC(=O)Nc3cc(Cl)c(OC)cc3OC)c3ccccc3c2=O)cc1` [TZ62-125], with greater than 1 µM.
The same measure, in the same setting: then `CCC(CC)CC1(O)CCN(C(=O)Nc2ccc(Oc3ccc(S(C)(=O)=O)cc3)cc2)CC1` [TZ57-104], with greater than 1 µM; and `CCC(CC)CC1(O)CCN(C(=O)Nc2cc(F)cc(C(F)(F)F)c2)CC1` [TZ59-042], with greater than 1 µM; and `CS(=O)(=O)c1ccc(Oc2cc(NC(=O)N(CCO)C3CCCCC3)cc(Oc3ccc(F)cc3)c2)cc1` [TZ57-062], with greater than 1 µM.
Turning to `COc1ccccc1NC(=O)Cn1c(=O)c2ccccc2n(CC(=O)c2ccccc2OC)c1=O` [TZ62-020], where the note is “Table 5, read-out: IC50 S1PR2”, the IC50 is greater than 1 µM.
Consider `COc1cc(OC)c(NC(=O)Cn2c(=O)n(CC(=O)NCCc3cccnc3)c(=O)c3ccccc32)cc1Cl` [Compound 2f], for which the IC50 under setting [2] stood at 0.0587 ± 0.009 µM.
In the case of `COc1ccccc1NC(=O)Cn1c(=O)c2ccccc2n(CC(=O)Nc2cc(Cl)nc(Cl)c2)c1=O` [TZ62-093], the half-maximal inhibitory concentration (IC50) (Table 5, read-out: IC50 S1PR2) is greater than 1 µM.
Same read-out and setting: then `CCC(CC)CC1(O)CCN(C(=O)Nc2cc(NC(=O)N3CCC(O)(CC(CC)CC)CC3)cc(C(F)(F)F)c2)CC1` [TZ59-039], with greater than 1 µM; and `COc1cc(OC)c(NC(=O)Cn2c(=O)n(CC(=O)NCCO)c(=O)c3ccccc32)cc1Cl` [TZ62-007], with greater than 1 µM; and `COc1cc(OC)c(NC(=O)Cn2c(=O)n(CCO)c(=O)c3ccccc32)cc1Cl` [TZ62-082], with greater than 1 µM.
In the case of `CCC1(O)CCN(C(=O)Nc2cc(Oc3ccc(C(=O)NC)cc3)cc(C(F)(F)F)c2)CC1` [Compound 25c, 4-Ethyl-4-hydroxy-N-(3-(4-(methylcarbamoyl)phenoxy)-5-(trifluoromethyl)phenyl)piperidine-1-carboxamide], the IC50 under setting [1] is greater than 1 µM.
For `CNC(=O)c1ccc(Oc2cc(NC(=O)N3CCC(C)(O)CC3)cc(C(F)(F)F)c2)cc1` [TZ51-057], under “Table 5, read-out: IC50 S1PR2”, the IC50 is greater than 1 µM.
On the same count and under the same terms, under `CNC(=O)c1ccc(Oc2cc(NC(=O)N3CCC(O)(CC(C)C)C3)cc(Oc3ccc(F)cc3)c2)cc1` (stereo not drawn) [TZ57-122] stands 0.077 ± 0.016 µM; under `O=C(O)Cn1c(=O)c2ccccc2n(CC(=O)Nc2cc(Cl)nc(Cl)c2)c1=O` [TZ62-092], greater than 1 µM.
On the same count and under the same terms, then `CCC(CC)CC1(O)CCN(C(=O)Nc2nc(Oc3ccc(F)cc3)nc(Oc3ccc(F)cc3)n2)CC1` [TZ51-150], with greater than 1 µM.
For the molecule `CNC(=O)c1ccc(Sc2cc(NC(=O)N3CCC(O)(CC(C)C)CC3)cc(C(F)(F)F)c2)cc1` [TZ51-121], the half-inhibitory concentration (IC50) (Table 5, read-out: IC50 S1PR2) was determined as 0.421 ± 0.09 µM.
With `CC(C)C1(O)CCN(C(=O)Nc2cc(Oc3ccc(S(C)(=O)=O)cc3)cc(C(F)(F)F)c2)CC1` [Compound 25f, 4-Hydroxy-4-isopropyl-N-(3-(4-(methylsulfonyl)phenoxy)-5-(trifluoromethyl)phenyl)piperidine-1-carboxamide], the half-inhibitory concentration (IC50) under setting [1] was greater than 1 µM.
Turning to `CCC(CC)CC1(OC)CCN(C(=O)Nc2cc(Oc3ccc(F)cc3)cc(Oc3ccc(S(C)(=O)=O)cc3)c2)CC1` [TZ57-054], the half-inhibitory concentration (IC50) (Table 5, read-out: IC50 S1PR2) is greater than 1 µM.
As to `CCC(CC)CC1(O)CCN(C(=O)Nc2cc(Oc3ccc(S(C)(=O)=O)cc3)cc(C(F)(F)F)c2)CC1` [Compound 21f, 4-(2-Ethylbutyl)-4-hydroxy-N-(3-(4-(methylsulfonyl)phenoxy)-5-(trifluoromethyl)phenyl)piperidine-1-carboxamide], the half-maximal inhibitory concentration (IC50) under setting [3] was 0.27 µM.
Take `CCOc1ccc(C(=O)Cn2cc(C(=O)O)c(=O)c3ccccc32)cc1Cl` [TZ62-120]: under “Table 5, read-out: IC50 S1PR2”, the IC50 worked out at 0.27 ± 0.21 µM.
In the case of `CCC1(O)CCN(C(=O)Nc2cc(Oc3ccc(S(C)(=O)=O)cc3)cc(C(F)(F)F)c2)CC1` [TZ51-047], the IC50 (Table 5, read-out: IC50 S1PR2) is greater than 1 µM.
As to `CCC(CC)CC1(O)CCN(C(=O)Nc2cc(C(=O)c3ccc(S(C)(=O)=O)cc3)cc(C(F)(F)F)c2)CC1` [TZ59-093], the IC50 (Table 5, read-out: IC50 S1PR2) is greater than 1 µM.
For the molecule `COc1cc(OC)c(NC(=O)Cn2c(=O)n(CC(=O)Nc3ccc(OCCF)cc3)c(=O)c3ccccc32)cc1Cl` [TZ65-049], where the note is “Table 5, read-out: IC50 S1PR2”, the concentration for half-maximal inhibition (IC50) was determined as 0.01 ± 0.0024 µM.
For the molecule `CC1(O)CCN(C(=O)Nc2cc(Oc3ccc(S(C)(=O)=O)cc3)cc(C(F)(F)F)c2)CC1` [Compound 25b, 4-Hydroxy-4-methyl-N-(3-(4-(methylsulfonyl)phenoxy)-5-(trifluoromethyl)phenyl)piperidine-1-carboxamide], under setting [1], the half-maximal inhibitory concentration (IC50) was greater than 1 µM.
Take `COc1cc(OC)c(NC(=O)Cn2c(=O)n(CC(=O)Nc3ccc(O)cc3)c(=O)c3ccccc32)cc1Cl` [TZ59-124, N-(5-Chloro-2,4-dimethoxyphenyl)-2-(3-(2-((4-hydroxyphenyl)amino)-2-oxoethyl)-2,4-dioxo-3,4-dihydroquinazolin-1(2H)-yl)acetamide]: the IC50 (Table 5, read-out: IC50 S1PR2) is 0.0026 ± 0.0003 µM.
As for `COc1ccc(C(=O)Cn2c(=O)n(CC(=O)Nc3ccccc3OC)c(=O)c3ccccc32)cc1Cl` [TZ62-026], the half-maximal inhibitory concentration (IC50) (Table 5, read-out: IC50 S1PR2) amounted to 0.287 ± 0.069 µM.
Still for that read-out and setting: under `CCC(CC)CC1(O)CCN(C(=O)Nc2cc(OCCCF)cc(Oc3ccc(C(=O)NC)cc3)c2)CC1` [TZ51-133] stands greater than 1 µM.
As to `CC(C)CC1(O)CCN(C(=O)Nc2cc(Oc3ccc(S(C)(=O)=O)cc3)cc(C(F)(F)F)c2)CC1` [Compound 25h, 4-Hydroxy-4-isobutyl-N-(3-(4-(methylsulfonyl)phenoxy)-5-(trifluoromethyl)phenyl)piperidine-1-carboxamide], the half-maximal inhibitory concentration (IC50) under setting [1] turned out to be 0.296 µM.
With `CCC(CC)CC1(O)CCN(C(=O)Nc2cc(Nc3ccc(S(C)(=O)=O)cc3)cc(C(F)(F)F)c2)CC1` [TZ59-062], the 50% inhibitory concentration (IC50) (Table 5, read-out: IC50 S1PR2) was greater than 1 µM.
On the same count and under the same terms, then `CNC(=O)c1ccc(Oc2cc(NC(=O)N3CCC(O)(CC(C)C)CC3)cc(C(F)(F)F)c2)cc1` [TZ51-108], with greater than 1 µM; and `CCC(CC)CC1(O)CCN(C(=O)Nc2cc(OCCF)cc(Oc3ccc(F)cc3)c2)CC1` [TZ51-149], with greater than 1 µM.
Regarding `CCC(CC)CC1(O)CCN(C(=O)Nc2cc(Oc3ccc(F)cc3)cc(-n3cccn3)c2)CC1` [Compound 17b, 4-(2-Ethylbutyl)-N-(3-(4-fluorophenoxy)-5-(1H-pyrazol-1-yl)phenyl)-4-hydroxypiperidine-1-carboxamide], under setting [1], the half-inhibitory concentration (IC50) is greater than 1 µM.
For `CCC(CC)CC1(O)CCN(C(=O)Nc2cc(N(C(=O)OC(C)(C)C)c3ccc(S(C)(=O)=O)cc3)cc(C(F)(F)F)c2)CC1` [TZ59-061], for the setting “Table 5, read-out: IC50 S1PR2”, the 50% inhibitory concentration (IC50) was greater than 1 µM.
Take `COc1cc(OC)c(NC(=O)Cn2c(=O)n(CC(=O)Nc3cc(Cl)nc(Cl)c3)c(=O)c3ccccc32)cc1Cl` [Compound 2g]: the IC50 under setting [2] was greater than 1 µM.
In the case of `CCC1(O)CCN(C(=O)Nc2cc(Oc3ccc(S(C)(=O)=O)cc3)cc(C(F)(F)F)c2)CC1` [Compound 25d, 4-Ethyl-4-hydroxy-N-(3-(4-(methylsulfonyl)phenoxy)-5-(trifluoromethyl)phenyl)piperidine-1-carboxamide], the IC50 under setting [1] was greater than 1 µM.
Take `COc1cc(OC)c(NC(=O)Cn2c(=O)n(CCCC(=O)NC3CCCC3)c(=O)c3ccccc32)cc1Cl` [TZ62-090]: the IC50 (Table 5, read-out: IC50 S1PR2) is 0.076 ± 0.019 µM.
Take `CCOc1ccc(C(=O)Cn2c(=O)n(CCCC(=O)NC3CCCC3)c(=O)c3cc(Cl)ccc32)cc1Cl` [TZ62-038]: for the setting “Table 5, read-out: IC50 S1PR2”, the half-maximal inhibitory concentration (IC50) came to 0.293 ± 0.069 µM.
Take `CNC(=O)c1ccc(Oc2cc(NC(=O)N3CCC(O)(C(C)C)CC3)cc(C(F)(F)F)c2)cc1` [Compound 25e, 4-Hydroxy-4-isopropyl-N-(3-(4-(methylcarbamoyl)phenoxy)-5-(trifluoromethyl)phenyl)piperidine-1-carboxamide]: under setting [1], the IC50 is greater than 1 µM.
With `CNC(=O)c1ccc(Oc2cc(NC(=O)N3CC(O)(CC(C)C)C3)cc(C(F)(F)F)c2)cc1` [TZ51-097], the IC50 (Table 5, read-out: IC50 S1PR2) was greater than 1 µM.
Consider `CCC(CC)CC1(O)CCN(C(=O)Nc2cc(Oc3ccc(C(=O)NC)cc3)cc(C(F)(F)F)c2)CC1` [Compound 21c, 4-(2-Ethylbutyl)-4-hydroxy-N-(3-(4-(methylcarbamoyl)-phenoxy)-5 (trifluoromethyl)phenyl)piperidine-1-carboxamide], for which, under setting [1], the IC50 was found to be 0.279 µM.
As to `CNC(=O)c1ccc(Oc2cc(NC(=O)N3CCC4(CC3)OCCO4)cc(C(F)(F)F)c2)cc1` [TZ51-022], the concentration for half-maximal inhibition (IC50) (IC50 S1PR2, Table 5) is greater than 1 µM.
As to `COc1cc(OC)c(NC(=O)Cn2c(=O)n(CC(=O)Nc3ccc(I)cc3)c(=O)c3ccccc32)cc1Cl` [TZ65-033], for the setting “Table 5, read-out: IC50 S1PR2”, the IC50 was 0.0169 ± 0.0056 µM.
Turning to `CCC(CC)CC1(O)CCN(C(=O)Nc2cc(Oc3ccc(S(C)(=O)=O)cc3)cc(Oc3ccc(F)nc3)c2)CC1` [TZ57-041], the IC50 (Table 5, read-out: IC50 S1PR2) stood at 0.198 ± 0.045 µM.
As for `CNC(=O)c1ccc(Oc2cc(NC(=O)N3CC(O)(CC(C)C)C3)cc(C(F)(F)F)c2)cc1` [Compound 25i, 3-Hydroxy-3-isobutyl-N-(3-(4-(methylcarbamoyl)phenoxy)-5-(trifluoromethyl)phenyl)azetidine-1-carboxamide], the concentration for half-maximal inhibition (IC50) runs as follows: under setting [1], greater than 1 µM; under setting [3], greater than 1 µM.
`COc1cc(OC)c(NC(=O)Cn2c(=O)n(CC(=O)N(C)C)c(=O)c3ccccc32)cc1Cl` [Compound 2l]: the IC50 under setting [2] was found to be 0.175 ± 0.013 µM.
On to `CCOc1ccc(C(=O)Cn2c(=O)n(CCCC(=O)N3CCCC3)c(=O)c3ccccc32)cc1Cl` [TZ62-050], for which the half-inhibitory concentration (IC50) (Table 5, read-out: IC50 S1PR2) is greater than 1 µM.
